± gives the expanded uncertainty stated by the source.
Columns and labels:
[1] = for surface tension liquid-gas: Capillary rise; for speed of sound / mass density: 100 kPa, Liquid; for speed of sound: Sing-around technique in a fixed-path interferometer; for mass density: Vibrating tube method
[2] = xn = mol fraction of the nth substance listed; conditions: x1 = 1; for surface tension liquid-gas: Capillary rise; for speed of sound: Sing-around technique in a fixed-path interferometer

O [water]
surface tension liquid-gas ([1]; 297.7 K): 71.9 ± 1.2 mN/m | surface tension liquid-gas ([1]; 304.8 K): 70.6 ± 1.2 mN/m | surface tension liquid-gas ([1]; 313.2 K): 69.5 ± 1.2 mN/m | speed of sound ([1]; 318.15 K): 1536.7 ± 0.9 m/s | surface tension liquid-gas ([1]; 324.1 K): 67.6 ± 1.2 mN/m | speed of sound ([1]; 333.15 K): 1551.3 ± 0.9 m/s

CCCC[N+]1(C)CCCC1.N#CN=C=[N-] [1-butyl-1-methylpyrrolidinium dicyanamide]
speed of sound ([1]; 288.15 K): 1834.4 ± 2.2 m/s | mass density ([1]; 288.15 K): 1019.11 ± 0.88 kg/m3 | speed of sound ([1]; 298.15 K): 1809.6 ± 2.2 m/s | mass density ([1]; 298.15 K): 1013.48 ± 0.86 kg/m3 | speed of sound ([1]; 308.15 K): 1785.2 ± 2.2 m/s | mass density ([1]; 308.15 K): 1007.82 ± 0.85 kg/m3 | speed of sound ([1]; 318.15 K): 1761 ± 2.2 m/s | mass density ([1]; 318.15 K): 1002.33 ± 0.84 kg/m3 | speed of sound ([1]; 333.15 K): 1724.7 ± 2.2 m/s | mass density ([1]; 333.15 K): 994.14 ± 0.83 kg/m3

O [water] + CCCC[N+]1(C)CCCC1.N#CN=C=[N-]
surface tension liquid-gas ([2]; 297.7 K): 71.9 ± 1.2 mN/m | surface tension liquid-gas ([2]; 304.8 K): 70.6 ± 1.2 mN/m | surface tension liquid-gas ([2]; 313.2 K): 69.5 ± 1.2 mN/m | speed of sound ([2]; 318.15 K, 100 kPa, Liquid): 1536.7 ± 0.9 m/s | surface tension liquid-gas ([2]; 324.1 K): 67.6 ± 1.2 mN/m | speed of sound ([2]; 333.15 K, 100 kPa, Liquid): 1551.3 ± 0.9 m/s | mass density ([2]; 333.15 K, 100 kPa, Liquid, Vibrating tube method): 983.19 ± 4 kg/m3

Reference: the NIST ThermoML archive (doi:10.1021/acs.jced.5b00944)
